Measurements published in PMC9235362 (Journal of medicinal chemistry, 2021).

Legend:
human 5-HT1ARs [1] = biological target: T1, human 5-HT1ARs (Homo sapiens, UniProt P08908); test: In vitro 5-HT1A receptor cAMP signaling; type: cell-based; conditions: for 5-HT1A E/Imax: Emax is the percent maximum serotonin, agonist, response, value (SEM), N.A. = no activation or inactivation up to 30 μM
T1 sequence (P08908 1-422): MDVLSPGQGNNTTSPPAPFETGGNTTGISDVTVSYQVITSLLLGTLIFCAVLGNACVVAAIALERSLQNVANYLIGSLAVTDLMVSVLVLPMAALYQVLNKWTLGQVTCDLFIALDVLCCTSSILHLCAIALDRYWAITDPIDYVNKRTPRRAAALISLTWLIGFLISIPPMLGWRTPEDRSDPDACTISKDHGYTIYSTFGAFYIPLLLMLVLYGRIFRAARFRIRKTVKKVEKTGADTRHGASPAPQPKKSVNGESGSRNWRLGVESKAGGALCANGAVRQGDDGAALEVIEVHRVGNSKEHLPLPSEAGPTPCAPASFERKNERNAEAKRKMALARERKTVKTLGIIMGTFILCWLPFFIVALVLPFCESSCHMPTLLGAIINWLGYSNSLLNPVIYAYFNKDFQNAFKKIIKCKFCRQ

human 5-HT2B receptors [2] = biological target: T2, human 5-HT2B receptors (Homo sapiens, UniProt P41595); test: 5-HT2B receptor phosphoinositide hydrolysis; type: cell-based; conditions: for 5-HT2B E/Imax (Imax): Imax is the percent maximum SB 206553, inverse agonist, response, value (SEM), N.A. = no activation or inactivation up to 30 μM; for In vitro functional activity at human 5-HT2BRs: phosphoinositide hydrolysis assay
T2 sequence (P41595 whole entry): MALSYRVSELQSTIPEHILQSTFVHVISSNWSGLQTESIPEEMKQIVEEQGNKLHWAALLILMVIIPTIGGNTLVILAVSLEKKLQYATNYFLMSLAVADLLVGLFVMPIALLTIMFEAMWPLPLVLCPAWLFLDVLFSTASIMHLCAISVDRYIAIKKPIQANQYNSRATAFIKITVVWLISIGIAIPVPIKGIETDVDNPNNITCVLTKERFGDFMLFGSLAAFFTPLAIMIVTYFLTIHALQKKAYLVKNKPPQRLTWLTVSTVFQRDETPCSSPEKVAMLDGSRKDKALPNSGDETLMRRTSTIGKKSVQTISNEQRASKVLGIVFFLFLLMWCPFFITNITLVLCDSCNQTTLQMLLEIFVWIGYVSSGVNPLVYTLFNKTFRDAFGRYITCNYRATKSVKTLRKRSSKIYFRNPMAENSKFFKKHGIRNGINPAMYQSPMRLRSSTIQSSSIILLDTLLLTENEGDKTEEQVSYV

[3] = i.v., male rats
hMOR = conditions: BRET G protein activation assay, cited from earlier work
human 5-HT1A receptor = conditions: read-out: Ki human 5-HT1A receptor orthosteric binding site; cited from earlier work
human 5-HT1ARs [4] = biological target: T1, human 5-HT1ARs; test: Radioligand competition binding at human 5-HT1ARs; conditions: present study versus 540 nM of ref 13
human 5-HT2B receptors [5] = biological target: T2, human 5-HT2B receptors; type: binding; conditions: 100 nM alkaloid; [125I](±)DOI; CHO-K1 cells
5-HT3Rs = biological target: T3, 5-HT3Rs (Homo sapiens, UniProt P46098); test: Radioligand competition binding at 5-HT3Rs
T3 sequence (P46098 24-478): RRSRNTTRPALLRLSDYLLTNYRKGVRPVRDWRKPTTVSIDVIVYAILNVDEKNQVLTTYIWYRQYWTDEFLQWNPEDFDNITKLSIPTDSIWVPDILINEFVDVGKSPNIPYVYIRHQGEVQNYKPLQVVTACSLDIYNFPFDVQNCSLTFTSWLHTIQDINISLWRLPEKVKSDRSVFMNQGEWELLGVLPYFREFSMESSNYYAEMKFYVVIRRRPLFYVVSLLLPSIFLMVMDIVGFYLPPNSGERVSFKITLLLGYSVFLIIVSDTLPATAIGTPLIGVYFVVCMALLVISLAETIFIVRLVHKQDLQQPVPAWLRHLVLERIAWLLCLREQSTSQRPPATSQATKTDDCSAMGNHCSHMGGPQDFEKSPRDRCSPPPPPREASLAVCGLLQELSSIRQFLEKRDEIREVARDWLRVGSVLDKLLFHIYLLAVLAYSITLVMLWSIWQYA

adrenergic α1D receptors = conditions: read-out: Ki adrenergic α1D receptors; cited from earlier work
5-HT1A receptors = conditions: cited from earlier work

CC[C@H]1CN2CCc3c([nH]c4cccc(O)c34)[C@@H]2C[C@@H]1/C(=C\OC)C(=O)OC [9-O-desmethylspeciogynine (gambirine), Methyl(E)-2-((2S,3R,12bS)-3-ethyl-8-hydroxy-1,2,3,4,6,7,12,12b-octahydroindolo[2,3-a]quinolizin-2-yl)-3-methoxyacrylate]
EC50 (human 5-HT1ARs [1]): 838 nM | 5-HT1A E/Imax (human 5-HT1ARs [1]): 99 (0.08) % | EC50 (human 5-HT2B receptors [2]): 1470 nM | 5-HT2B E/Imax (Imax) (human 5-HT2B receptors [2]): 45 (14.3) %

CC[C@@H]1CN2CCc3c([nH]c4cccc(OC)c34)[C@@H]2C[C@@H]1/C(=C\OC)C(=O)OC [mitragynine]
Dose-normalized exposure (AUCinf/dose) relative to paynantheine [3]: 3.6 fold | Dose-normalized exposure (AUCinf/dose) relative to speciogynine [3]: 1.7 fold

CC[C@H]1CN2CCc3c([nH]c4cccc(OC)c34)[C@@H]2C[C@@H]1/C(=C\OC)C(=O)OC [speciogynine, Methyl(E)-2-((2S,3R,12bS)-3-ethyl-8-methoxy-1,2,3,4,6,7,12,12b-octahydroindolo[2,3-a]quinolizin-2-yl)-3-methoxyacrylate]
EC50 (human 5-HT2B receptors [2]): 2020 nM | 5-HT2B E/Imax (Imax) (human 5-HT2B receptors [2]): 24.8 (6.9) % | In vitro functional activity at human 5-HT2BRs (human 5-HT2B receptors [2]): no agonist activity | Functional activity at hMOR (hMOR): low-potency, competitive antagonists | Ki (human 5-HT1A receptor): 540 nM | Affinity for 5-HT1ARs relative to previously reported value (human 5-HT1ARs [4]): > 10 fold

Cn1ccc2cc3c(cc21)CCN3C(=O)Nc1cccnc1 [SB 206553, reference compound]
EC50 (human 5-HT2B receptors [2]): 15.3 nM | 5-HT2B E/Imax (Imax) (human 5-HT2B receptors [2]): 100%

CC[C@@H]1CN2CCc3c([nH]c4cccc(O)c34)[C@@H]2C[C@@H]1/C(=C\OC)C(=O)OC [9-hydroxycorynantheidine]
Percent displacement of radioligand, 5-HT2B (human 5-HT2B receptors [5]): 5.2% | Percent displacement of radioligand, 5-HT3 (5-HT3Rs; 100 nM alkaloid): −1.3% | Percent displacement of radioligand, 5-HT3 (5-HT3Rs; 10,000 nM alkaloid): 7.3%

C=C[C@H]1CN2CCc3c([nH]c4cccc(OC)c34)[C@@H]2C[C@@H]1/C(=C\OC)C(=O)OC [paynantheine, Methyl(E)-3-methoxy-2-((2S,3R,12bS)-8-methoxy-3-vinyl-1,2,3,4,6,7,12,12b-octahydroindolo[2,3-a]quinolizin-2-yl)acrylate]
Percent displacement of radioligand, 5-HT3 (5-HT3Rs; 100 nM alkaloid): −9.8% | Percent displacement of radioligand, 5-HT3 (5-HT3Rs; 10,000 nM alkaloid): −0.8% | In vitro functional activity at human 5-HT2BRs (human 5-HT2B receptors [2]): no agonist activity | Functional activity at hMOR (hMOR): low-potency, competitive antagonists

O=C1c2ccccc2S(=O)(=O)N1CCCCN1CCN(c2ncccn2)CC1 [ipsapirone, reference compound]
5-HT1A E/Imax (human 5-HT1ARs [1]): 82 (0.1) %

CC[C@@H]1CN2CCc3c([nH]c4cccc(OC)c34)[C@H]2C[C@@H]1/C(=C\OC)C(=O)OC [speciociliatine]
Functional activity at hMOR (hMOR): low-potency, competitive antagonists

CC[C@@H]1CN2CCc3c([nH]c4ccccc34)[C@@H]2C[C@@H]1/C(=C\OC)C(=O)OC [corynantheidine]
Percent displacement of radioligand, 5-HT2B (human 5-HT2B receptors [5]): 14.8% | Percent displacement of radioligand, 5-HT3 (5-HT3Rs; 100 nM alkaloid): 6.2% | Percent displacement of radioligand, 5-HT3 (5-HT3Rs; 10,000 nM alkaloid): 6.8% | Ki (adrenergic α1D receptors): 41 nM

C=C[C@H]1CN2CCc3c([nH]c4cccc(O)c34)[C@@H]2C[C@@H]1/C(=C\OC)C(=O)OC [9-O-desmethylpaynantheine (gambireine), Methyl(E)-2-((2S,3R,12bS)-8-hydroxy-3-vinyl-1,2,3,4,6,7,12,12b-octahydroindolo[2,3-a]quinolizin-2-yl)-3-methoxyacrylate]
EC50 (human 5-HT1ARs [1]): 865 nM | 5-HT1A E/Imax (human 5-HT1ARs [1]): 100 (0.08) % | EC50 (human 5-HT2B receptors [2]): 2340 nM | 5-HT2B E/Imax (Imax) (human 5-HT2B receptors [2]): 38 (10.3) %

C/C=C1/CN2CCc3c([nH]c4ccccc34)[C@@H]2C[C@@H]1/C(=C/OC)C(=O)OC [Geissoschizine methyl ether]
Activity at 5-HT1A receptors (5-HT1A receptors): potent antagonist

Methyl(4S,4aR,13bS,14aS)-4-methyl-4a,5,7,8,13,13b,14,14a-octahydro-4H-indolo[2,3-a]pyrano[3,4-g]quinolizine-1-carboxylate [ajmalicine]
Percent displacement of radioligand, 5-HT2B (human 5-HT2B receptors [5]): 6.2% | Percent displacement of radioligand, 5-HT3 (5-HT3Rs; 100 nM alkaloid): −2.5% | Percent displacement of radioligand, 5-HT3 (5-HT3Rs; 10,000 nM alkaloid): 1.8% | Ki (human 5-HT1A receptor): 420 nM

NCCc1c[nH]c2ccc(O)cc12 [serotonin, reference compound]
5-HT1A E/Imax (human 5-HT1ARs [1]): 100%
